SMILES | melting point [°C]
CC(C)(C)c1ccc(OCC(=O)NCc2ccc(NS(C)(=O)=O)c(O)c2)cc1 [Example 12, 2-(4-tert-Butylphenoxy) -N-{3-hydroxy-4-[(methylsulfonyl)amino]benzyl}acetamide] | 112.3
CC(C)(C)c1ccc(OCC(=O)NCc2ccc(NS(C)(=O)=O)cc2)cc1 [Example 9, 2-(4-tert-Butylphenoxy)-N-{4-[(methylsulfonyl)amino]benzyl}acetamide] | 163.1

Reference: patent US7214824B2, “Substituted N-sulfonylaminobenzyl-2-phenoxyacetamide compounds as VR1 receptor agonists” (Pfizer Inc., priority 2004, dated 2007)
